In patent US20250332139A1, “PS[…] AND THEIR USE FOR TREATING […] AND NE[…] DISORDERS” (Transcend Therapeutics, Inc., priority 2021, published 2025):

Legend:
168 GPCRs [1] = molecular target: T1, 168 GPCRs (Homo sapiens, UniProt Q16602); assay: β-arrestin GPCR screen (PathHunter/GPCRmax), agonist mode; format: cell-based; conditions: CALCRL-RAMP3; Agonist; 10 uM
T1 construct: host or cells: PathHunter cell lines
Experimental: (§1) For agonist determination, cells were incubated with sample to induce response. […] Vehicle concentration was 1%.

168 GPCRs [2] = molecular target: T2, 168 GPCRs (Homo sapiens, UniProt P32246); assay: as above; format: cell-based; conditions: CCR1; Agonist; 1 uM
T2 construct: host or cells: PathHunter cell lines
Experimental: as §1

168 GPCRs [3] = molecular target: T3, 168 GPCRs (Homo sapiens, UniProt P21917); assay: as above; format: cell-based; conditions: GPCR DRD4; Agonist mode; 10 uM
T3 construct: host or cells: PathHunter cell lines
T3 sequence (P21917 whole entry): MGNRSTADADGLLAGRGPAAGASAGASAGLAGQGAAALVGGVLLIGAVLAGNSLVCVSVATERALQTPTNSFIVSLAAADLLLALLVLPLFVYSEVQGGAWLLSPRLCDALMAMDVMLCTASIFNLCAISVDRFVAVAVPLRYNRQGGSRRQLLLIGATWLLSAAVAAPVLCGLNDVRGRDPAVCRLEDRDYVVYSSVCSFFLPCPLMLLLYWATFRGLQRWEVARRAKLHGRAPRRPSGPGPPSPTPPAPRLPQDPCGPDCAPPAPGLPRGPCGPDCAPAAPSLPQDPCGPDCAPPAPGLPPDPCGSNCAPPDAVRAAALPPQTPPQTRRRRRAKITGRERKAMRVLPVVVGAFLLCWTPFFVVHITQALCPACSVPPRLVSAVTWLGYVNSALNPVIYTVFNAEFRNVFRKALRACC
Experimental: as §1

168 GPCRs [4] = molecular target: T4, 168 GPCRs (Homo sapiens, UniProt Q96P65); assay: as above; format: cell-based; conditions: GPR103; Agonist; 1 uM
T4 construct: host or cells: PathHunter cell lines
Experimental: as §1

168 GPCRs [5] = molecular target: T5, 168 GPCRs (Homo sapiens, UniProt P48546); assay: as above; format: cell-based
T5 construct: host or cells: PathHunter cell lines
T5 sequence (P48546 22-466): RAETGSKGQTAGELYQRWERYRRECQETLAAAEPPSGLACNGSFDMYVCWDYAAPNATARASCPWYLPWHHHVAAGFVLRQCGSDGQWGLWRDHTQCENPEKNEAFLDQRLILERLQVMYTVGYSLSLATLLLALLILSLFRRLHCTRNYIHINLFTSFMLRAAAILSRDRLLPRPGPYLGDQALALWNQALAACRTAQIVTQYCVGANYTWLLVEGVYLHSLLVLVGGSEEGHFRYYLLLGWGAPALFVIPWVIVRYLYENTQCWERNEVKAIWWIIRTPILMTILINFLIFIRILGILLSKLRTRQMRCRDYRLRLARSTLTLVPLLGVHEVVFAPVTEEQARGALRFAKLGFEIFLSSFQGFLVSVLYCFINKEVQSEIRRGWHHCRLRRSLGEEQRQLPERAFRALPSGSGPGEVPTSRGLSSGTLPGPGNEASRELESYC
Experimental: as §1

168 GPCRs [6] = molecular target: T6, 168 GPCRs (Homo sapiens, UniProt P49682); assay: as above; format: cell-based; conditions: GPCR CXCR3; Agonist mode; 10 uM
T6 construct: host or cells: PathHunter cell lines
Experimental: as §1

168 GPCRs [7] = molecular target: 168 GPCRs (Homo sapiens, UniProt P30988); assay: β-arrestin GPCR screen (PathHunter/GPCRmax), antagonist mode; conditions: CALCR-RAMP3, Antagonist
Chain of 168 GPCRs (Homo sapiens, UniProt P30988) (P30988 25-474): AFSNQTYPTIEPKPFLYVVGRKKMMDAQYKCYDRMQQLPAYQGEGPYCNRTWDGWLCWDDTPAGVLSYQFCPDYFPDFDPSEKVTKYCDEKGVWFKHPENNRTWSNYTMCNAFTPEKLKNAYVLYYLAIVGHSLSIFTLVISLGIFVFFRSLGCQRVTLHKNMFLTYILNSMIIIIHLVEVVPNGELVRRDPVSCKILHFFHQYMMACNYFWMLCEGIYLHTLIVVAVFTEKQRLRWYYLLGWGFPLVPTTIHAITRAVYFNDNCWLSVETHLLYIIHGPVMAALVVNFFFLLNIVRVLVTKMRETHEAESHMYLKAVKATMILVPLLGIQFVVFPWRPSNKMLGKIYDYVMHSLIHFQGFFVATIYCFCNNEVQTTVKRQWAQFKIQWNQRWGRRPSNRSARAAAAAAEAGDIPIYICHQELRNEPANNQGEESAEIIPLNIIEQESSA

168 GPCRs [8] = molecular target: 168 GPCRs (Homo sapiens, UniProt P29371); assay: as above; conditions: GPCR TACR3; Antagonist mode; 10 uM
168 GPCRs [9] = molecular target: 168 GPCRs (Homo sapiens, UniProt P43115); assay: as above
Chain of 168 GPCRs (Homo sapiens, UniProt P43115) (P43115 whole entry): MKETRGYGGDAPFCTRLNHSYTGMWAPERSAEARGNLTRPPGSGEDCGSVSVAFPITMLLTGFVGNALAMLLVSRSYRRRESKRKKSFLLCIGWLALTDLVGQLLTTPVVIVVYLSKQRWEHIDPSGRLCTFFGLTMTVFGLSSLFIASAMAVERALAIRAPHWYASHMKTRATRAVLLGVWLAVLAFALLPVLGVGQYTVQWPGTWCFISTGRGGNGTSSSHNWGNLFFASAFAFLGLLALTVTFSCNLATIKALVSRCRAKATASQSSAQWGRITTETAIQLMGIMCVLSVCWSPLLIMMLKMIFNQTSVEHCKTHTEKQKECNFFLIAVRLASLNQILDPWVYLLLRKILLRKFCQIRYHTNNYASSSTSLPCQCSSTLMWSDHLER

168 GPCRs [10] = molecular target: 168 GPCRs (Homo sapiens, UniProt P41231); assay: as above; conditions: GPCR P2RY2; Antagonist mode; 10 uM
168 GPCRs [11] = molecular target: 168 GPCRs (Homo sapiens, UniProt Q99500); assay: as above; conditions: GPCR EDG3; Antagonist mode; 10 uM
Chain of 168 GPCRs (Homo sapiens, UniProt Q99500) (Q99500 whole entry): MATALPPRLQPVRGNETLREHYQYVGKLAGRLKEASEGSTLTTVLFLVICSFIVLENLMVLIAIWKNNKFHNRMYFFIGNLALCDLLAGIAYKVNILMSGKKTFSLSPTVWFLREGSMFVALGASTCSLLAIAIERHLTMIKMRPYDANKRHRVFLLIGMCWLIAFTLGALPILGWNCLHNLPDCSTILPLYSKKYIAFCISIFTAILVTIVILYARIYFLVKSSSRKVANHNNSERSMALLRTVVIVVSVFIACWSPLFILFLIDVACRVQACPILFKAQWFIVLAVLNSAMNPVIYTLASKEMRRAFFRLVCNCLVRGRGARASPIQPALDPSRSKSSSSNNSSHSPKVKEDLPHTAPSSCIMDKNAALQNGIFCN

168 GPCRs [12] = molecular target: 168 GPCRs (Homo sapiens, UniProt P47872); assay: as above; conditions: SCTR; Antagonist; 1 uM
168 GPCRs [13] = molecular target: 168 GPCRs (Homo sapiens, UniProt P32249); assay: as above; conditions: GPCR EBI2; Antagonist mode; 10 uM
Chain of 168 GPCRs (Homo sapiens, UniProt P32249) (P32249 whole entry): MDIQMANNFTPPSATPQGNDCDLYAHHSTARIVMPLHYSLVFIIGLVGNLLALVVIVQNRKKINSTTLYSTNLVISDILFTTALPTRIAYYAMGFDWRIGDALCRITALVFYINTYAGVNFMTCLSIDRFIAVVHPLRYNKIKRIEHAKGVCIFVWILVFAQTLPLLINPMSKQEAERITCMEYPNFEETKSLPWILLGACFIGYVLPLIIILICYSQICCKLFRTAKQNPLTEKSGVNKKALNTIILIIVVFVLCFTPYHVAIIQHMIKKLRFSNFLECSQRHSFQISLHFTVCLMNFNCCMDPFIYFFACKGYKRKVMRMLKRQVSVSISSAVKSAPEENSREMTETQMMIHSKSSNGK

168 GPCRs [14] = molecular target: 168 GPCRs (Homo sapiens, UniProt Q15077); assay: as above; conditions: P2RY6; Antagonist; 1 uM
Chain of 168 GPCRs (Homo sapiens, UniProt Q15077) (Q15077 whole entry): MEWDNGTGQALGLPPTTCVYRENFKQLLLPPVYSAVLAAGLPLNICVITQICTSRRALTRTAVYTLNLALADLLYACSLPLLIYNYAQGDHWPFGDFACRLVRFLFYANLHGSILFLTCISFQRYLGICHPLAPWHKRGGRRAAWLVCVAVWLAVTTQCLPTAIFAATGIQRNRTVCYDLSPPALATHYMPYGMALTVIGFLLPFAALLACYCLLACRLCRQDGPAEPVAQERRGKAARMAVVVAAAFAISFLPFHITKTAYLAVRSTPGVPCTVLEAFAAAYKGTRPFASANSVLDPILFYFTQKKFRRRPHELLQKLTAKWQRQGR

168 GPCRs [15] = molecular target: 168 GPCRs (Homo sapiens, UniProt Q9HBW0); assay: as above; conditions: EDG4; Antagonist; 1 uM
Chain of 168 GPCRs (Homo sapiens, UniProt Q9HBW0) (Q9HBW0 whole entry): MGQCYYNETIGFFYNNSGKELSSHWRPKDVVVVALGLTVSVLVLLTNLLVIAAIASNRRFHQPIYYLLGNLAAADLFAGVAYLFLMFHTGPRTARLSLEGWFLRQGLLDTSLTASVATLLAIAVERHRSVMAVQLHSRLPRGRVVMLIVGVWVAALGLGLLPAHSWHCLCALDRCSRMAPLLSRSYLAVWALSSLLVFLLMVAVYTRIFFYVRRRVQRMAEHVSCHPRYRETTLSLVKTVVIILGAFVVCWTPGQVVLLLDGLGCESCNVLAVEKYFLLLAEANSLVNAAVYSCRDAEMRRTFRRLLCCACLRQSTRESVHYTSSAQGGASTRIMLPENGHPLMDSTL

168 GPCRs [16] = molecular target: 168 GPCRs (Homo sapiens, UniProt P41968); assay: as above; conditions: GPCR MC3R; Antagonist mode; 10 uM
Chain of 168 GPCRs (Homo sapiens, UniProt P41968) (P41968 whole entry): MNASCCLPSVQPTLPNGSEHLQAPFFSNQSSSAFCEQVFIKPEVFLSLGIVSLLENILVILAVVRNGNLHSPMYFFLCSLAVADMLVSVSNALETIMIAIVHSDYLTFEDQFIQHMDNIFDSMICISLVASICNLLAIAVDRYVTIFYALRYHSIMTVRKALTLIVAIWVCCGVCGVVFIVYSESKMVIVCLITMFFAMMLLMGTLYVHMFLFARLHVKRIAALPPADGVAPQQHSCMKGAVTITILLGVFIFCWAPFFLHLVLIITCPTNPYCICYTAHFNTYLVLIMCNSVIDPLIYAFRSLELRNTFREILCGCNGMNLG

168 GPCRs [17] = molecular target: 168 GPCRs (Homo sapiens, UniProt Q9UBY5); assay: as above; conditions: EDG7; Antagonist; 1 uM
168 GPCRs [18] = molecular target: 168 GPCRs (Homo sapiens, UniProt P25090); assay: as above; conditions: GPCR FPRL1; Antagonist mode; 10 uM
Chain of 168 GPCRs (Homo sapiens, UniProt P25090) (P25090 whole entry): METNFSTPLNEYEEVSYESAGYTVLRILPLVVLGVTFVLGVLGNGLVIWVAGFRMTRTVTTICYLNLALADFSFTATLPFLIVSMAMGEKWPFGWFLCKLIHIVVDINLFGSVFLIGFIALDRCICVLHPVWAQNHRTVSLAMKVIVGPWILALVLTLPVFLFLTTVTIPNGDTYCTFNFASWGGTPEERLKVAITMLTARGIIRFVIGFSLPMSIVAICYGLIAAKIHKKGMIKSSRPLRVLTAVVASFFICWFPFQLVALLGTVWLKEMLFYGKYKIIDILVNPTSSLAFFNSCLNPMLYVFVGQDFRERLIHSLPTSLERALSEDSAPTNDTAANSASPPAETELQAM

168 GPCRs [19] = molecular target: 168 GPCRs (Homo sapiens, UniProt Q99705); assay: as above; conditions: GPCR MCHR1; Antagonist mode; 10 uM
Chain of 168 GPCRs (Homo sapiens, UniProt Q99705) (Q99705 whole entry): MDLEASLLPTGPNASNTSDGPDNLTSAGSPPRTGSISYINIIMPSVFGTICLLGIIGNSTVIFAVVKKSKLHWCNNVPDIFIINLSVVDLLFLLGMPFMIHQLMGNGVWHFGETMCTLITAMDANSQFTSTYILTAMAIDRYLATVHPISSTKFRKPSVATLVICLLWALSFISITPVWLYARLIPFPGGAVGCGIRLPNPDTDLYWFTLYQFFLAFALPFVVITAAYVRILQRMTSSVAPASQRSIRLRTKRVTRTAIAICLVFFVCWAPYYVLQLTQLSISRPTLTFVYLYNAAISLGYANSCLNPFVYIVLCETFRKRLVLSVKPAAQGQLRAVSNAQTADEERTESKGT

168 GPCRs [20] = molecular target: 168 GPCRs (Homo sapiens, UniProt P50391); assay: as above; conditions: PPYR1; Antagonist; 1 uM
168 GPCRs [21] = molecular target: 168 GPCRs (Homo sapiens, UniProt P21918); assay: as above; conditions: DRD5; Antagonist; 1 uM
168 GPCRs [22] = molecular target: 168 GPCRs (Homo sapiens, UniProt Q9NSD7); assay: as above; conditions: GPCR RXFP3; Antagonist mode; 10 uM
Chain of 168 GPCRs (Homo sapiens, UniProt Q9NSD7) (Q9NSD7 whole entry): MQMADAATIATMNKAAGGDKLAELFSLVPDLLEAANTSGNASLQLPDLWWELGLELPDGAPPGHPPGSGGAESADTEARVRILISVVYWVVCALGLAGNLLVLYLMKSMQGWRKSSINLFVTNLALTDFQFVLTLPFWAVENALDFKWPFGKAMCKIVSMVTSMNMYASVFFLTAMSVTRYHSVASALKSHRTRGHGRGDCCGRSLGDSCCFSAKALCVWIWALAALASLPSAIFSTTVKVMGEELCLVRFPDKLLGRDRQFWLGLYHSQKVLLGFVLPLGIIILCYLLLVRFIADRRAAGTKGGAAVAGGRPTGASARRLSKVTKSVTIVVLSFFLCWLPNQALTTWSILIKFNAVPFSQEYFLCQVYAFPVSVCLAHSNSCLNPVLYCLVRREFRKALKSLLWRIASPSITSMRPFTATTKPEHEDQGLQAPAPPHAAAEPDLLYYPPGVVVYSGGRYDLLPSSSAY

168 GPCRs [23] = molecular target: 168 GPCRs (Homo sapiens, UniProt Q8TDS5); assay: as above; conditions: GPCR OXER1; Antagonist mode; 10 uM
168 GPCRs [24] = molecular target: 168 GPCRs (Homo sapiens, UniProt Q01726); assay: as above; conditions: GPCR MC1R; Antagonist mode; 10 uM
168 GPCRs [25] = molecular target: 168 GPCRs (Homo sapiens, UniProt Q96RI0); assay: as above; conditions: F2RL3; Antagonist; 1 uM
168 GPCRs [26] = molecular target: 168 GPCRs (Homo sapiens, UniProt Q8NFJ6); assay: as above; conditions: GPCR PROKR2; Antagonist mode; 10 uM

CNC(C)C(=O)c1ccc2c(c1)OCO2 (centres unmarked) [methylone, 3,4-methylenedioxy-N-methylcathinone]
activity at 10 µM (168 GPCRs [1]): -2.2%
activity at 1 µM (168 GPCRs [2]): ~-2%
activity at 10 µM (168 GPCRs [3]): -9.4%
activity at 1 µM (168 GPCRs [4]): ~0%
activity at 1 µM (168 GPCRs [5]; GIPR, Agonist, 1 uM): ~-2%
activity at 10 µM (168 GPCRs [5]; GPCR GIPR, Agonist mode, 10 uM): ~-5%
activity at 10 µM (168 GPCRs [6]): ~1%
activity at 1 µM (168 GPCRs [7]; 1 uM): ~-8%
activity at 10 µM (168 GPCRs [7]; 10 uM): -3.3%
activity at 10 µM (168 GPCRs [8]): ~-14%
activity at 10 µM (168 GPCRs [9]; GPCR PTGER3, Antagonist mode, 10 uM): -5.7%
activity at 1 µM (168 GPCRs [9]; PTGER3, Antagonist, 1 uM): 8.2%
activity at 10 µM (168 GPCRs [10]): ~1%
activity at 10 µM (168 GPCRs [11]): -13.6%
activity at 1 µM (168 GPCRs [12]): ~6%
activity at 10 µM (168 GPCRs [13]): -2.6%
activity at 1 µM (168 GPCRs [14]): ~8%
activity at 1 µM (168 GPCRs [15]): ~-10%
activity at 10 µM (168 GPCRs [16]): -0.3%
activity at 1 µM (168 GPCRs [17]): ~19%
activity at 10 µM (168 GPCRs [18]): ~3%
activity at 10 µM (168 GPCRs [19]): -38.3%
activity at 1 µM (168 GPCRs [20]): ~9%
activity at 1 µM (168 GPCRs [21]): -6.9%
activity at 10 µM (168 GPCRs [22]): ~32%
activity at 10 µM (168 GPCRs [23]): ~7%
activity at 10 µM (168 GPCRs [24]): ~15%
activity at 1 µM (168 GPCRs [25]): ~-11%
activity at 10 µM (168 GPCRs [26]): -6.8%
